# Where two headings read alike, the source gives them in different places.
# Experiments:
# BxPC-3 = assay: Cytotoxicity assay (CellTox Green), cell death; assay type: cell-based, human; settings: BxPC3, 72 h
# Method: Cell death was assessed by applying the CellTox Green cytotoxicity assay (Promega). Briefly, BxPC-3 (1 × 10^4/well) were plated in 96-well plates and treated for 72 h with olaparib (10 μM) and the BRCA2-RAD51 disruptors administered alone or in combination. At the end of treatment, the CellTox dye was added to cell cultures and the green fluorescence signal, which is produced by the binding interaction with dead cell DNA, was measured following the manufacturer’s instructions.
# HK-2 = assay: Cell viability assay (antiproliferative effect), association with olaparib; assay type: cell-based, human; settings: HK-2, 72 h, 10 μM olaparib; two-way ANOVA
# Method: (§1) Finally, the antiproliferative effect of the 35d/olaparib combination was also studied on the HR-defective Capan-1 culture and on a non-neoplastic cell line derived from human kidney (HK-2). Moreover, to evaluate the antineoplastic potency of the 35d/olaparib association, we also calculated the combination index (CI) of the two compounds, using the procedure previously described[30],[31] (Figure 9).
# (§2) Cell viability was assessed with the CellTiter-Glo luminescent cell viability assay from Promega. For this experiment, 1 × 10^4 cells in 200 μL of culture medium were seeded into each well of a 96-multiwell white body plate and allowed to adhere overnight. After 72 h incubation in the presence of olaparib (10 μM) and the RAD51-BRCA2 disruptors alone or in combination, the plate was allowed to equilibrate at room temperature for 30 min and the CellTiter-Glo reactive was directly added to each well. The plate was kept on a shaker for 10 min to induce cell lysis, and its luminescence was measured with a Fluoroskan Ascent FL reader (Labsystems).
# Capan-1 cells = assay: as above; assay type: cell-based, human
# Method: as §1, §2
# RAD51 in BxPC-3 nuclei = assay: Immunofluorescence of RAD51 nuclear localization after cisplatin; assay type: cell-based, human; settings: BxPC-3, 50 μM cisplatin in association with 20 μM 35d
# Method: Immunofluorescence was used for studying RAD51 nuclear translocation and for evaluating DNA damage through the detection of γH2AX nuclear foci. To visualize RAD51 in cell nuclei, BxPC-3 cells were seeded on glass coverslips placed in a 6-well culture plate (2 × 10^5 cells/well) and allowed to adhere overnight. Cultures were then preincubated with 20 μM 35d for 1 h and subsequently exposed to 50 μM cisplatin for an additional 1.5 h. Medium was removed, and cells were maintained in the presence of 20 μM 35d for 4 h. After this time, cultures growing on coverslips were fixed in PBS containing 1% formalin for 20 min, permeabilized in 70% ethanol, air-dried, and washed twice with PBS. Samples were incubated in 10% bovine serum albumin (BSA) in PBS for 30 min at 37 °C and subsequently exposed to an anti-RAD51 mouse monoclonal antibody (Santa Cruz Biotechnology, 1:1000 in 5% BSA/PBS) overnight at 4 °C. After washing, coverslips were incubated with an anti-mouse FITC-conjugated secondary antibody (1:1000 in 1% BSA/PBS) for 1 h at 37 °C, washed, air-dried, and mounted with a solution of DAPI (2 μg/mL) and DABCO.
# [1] = system: homologous recombination in BxPC3 cells; assay: Homologous recombination assay (two-plasmid recombination, real-time PCR); assay type: cell-based, human; settings: Homo sapiens, BXPC-3
# [2] = Solubility (as observed in cell culture media / stated); assay type: physicochemical
# BxPC3 cells = assay: Cell viability assay (CellTiter-Glo), association with olaparib; assay type: cell-based, human
# Source text: Our working hypothesis is that compounds disrupting RAD51-BRCA2 interaction should affect HR repair and increase the efficacy of PARPi in treating breast, ovarian, and pancreatic cancer. For its clinical relevance, pancreatic adenocarcinoma was selected as our final model for cell-based experiments, and BxPC3 cells were selected for a straightforward comparison with the previously reported triazole derivatives.[30],[31] BxPC3 is derived from a human adenocarcinoma that expresses fully functional BRCA2.[38] As shown in Table 2 and according to the rationale of our hypothesis, our preliminary screening consisted of verifying the efficacy of compounds in inhibiting cell HR and/or in increasing the antiproliferative effect of olaparib. […] HR activity was assessed by evaluating the recombination rate between two transfected plasmids, using a commercially available assay. […] As for the emissucinic acid-containing compounds (4d, 12d, 18d, 20d–23d, 30d, 31d), one of the reasons for their lower potency in cells might be the general poor permeability, likely related to the ionizable acid moiety. […] We then characterized 35d in additional biophysical and cell-based experiments.
# as §2
smiles,measurement,setting,value
"CCC(=O)N1N=C(c2c(-c3ccccc3)c3cc(Cl)ccc3[nH]c2=O)CC1c1ccc(OC)cc1 (centres unmarked) [Compound 35d, 6-Chloro-3-(5-(4-methoxyphenyl)-1-propionyl-4,5-dihydro-1H-pyrazol-3-yl)-4-phenylquinolin-2(1H)-one]","cell death, effect of olaparib coadministration","BxPC-3; 20 μM 35d + 10 μM olaparib, p < 0.0001",markedly increased and statistically significant
same,"cell death, effect of olaparib coadministration",BxPC-3; 10–15 μM 35d + 10 μM olaparib,no statistically significant increase
same,antiproliferative effect of 35d/olaparib vs olaparib,HK-2,no dose of 35d appeared to significantly increase
same,antiproliferative effect of 35d/olaparib,"Capan-1 cells; Capan-1, 72 h, 10 μM olaparib, two-way ANOVA",significantly increased antiproliferative effects
same,combination index (CI) with olaparib,"Capan-1 cells; Capan-1, all tested doses of 35d + 10 μM olaparib",~1
same,RAD51 nuclear foci in cisplatin-treated cells,RAD51 in BxPC-3 nuclei,significantly reduced
same,inhibition at 10 µM,"[1]; 10 μM, BxPC3, 5 h during plasmid transfection",~10%
same,inhibition at 20 µM,"[1]; 20 μM, BxPC3, 5 h during plasmid transfection",54%
same,EC50,"[1]; BxPC3, 5 h, tested up to 40 μM, polynomial regression, read-out: EC50 (dose causing a 50% inhibition of HR)",18.4 µM
same,solubility,"[2]; HR assay medium (RPMI, 0.6% DMSO), kinetic from dmso stock, read-out: upper limit in terms of solubility",40 µM
same,solubility,[2]; stated in conclusions,low solubility
same,combination index (CI) with olaparib,"BxPC3 cells; BxPC3, 10 μM 35d + 10 μM olaparib",~1
same,olaparib association,"BxPC3 cells; BxPC3, at 15 μM",olaparib association = present at 15 μM
same,combination index (CI) with olaparib,"BxPC3 cells; BxPC-3, 20 μM 35d + 10 μM olaparib, CI < 0.8 = synergism",< 0.8
